Test results as given in patent US20130029981A1, “COMPOUNDS, COMPOSITIONS, AND METHODS FOR CONTROLLING BIOFILMS” (Katholieke Universiteit Leuven, priority 2009, published 2013).
Where two headings read alike, the source gives them in different places.

Test system: S. Typhimurium ATCC14028
Test: Static peg assay for prevention of biofilm formation (Calgary device, crystal violet)
Format: cell-based, Salmonella Typhimurium
Method: (§1) Evaluation of the biofilm inhibitory activity of some substituted 2-amino-1H-imidazoles of the invention was carried out by growing up biofilms of S. Typhimurium ATCC14028 or SL1344 or Pseudomonas aeruginosa PA14 in the presence of different concentrations (1/2 dilution series) of biofilm inhibitors, by using the Calgary biofilm device. After an incubation period of 24 hours at 25° C. or 37° C. or 48 hours at 16° C. the biofilms were visualized by crystal violet staining. In the next step the stain was extracted from the biofilm with 30% acetic acid. The absorbance of the resolubilized stain at 570 nm is a measure of the amount of biofilm formed.
In examples 2 and 3, the following materials and methods were used.
The device used for biofilm formation is a platform carrying 96 polystyrene pegs (Nunc no. 445497) that fits as a microtiter plate lid with a peg hanging into each microtiter plate well (Nunc no. 269789). Biofilm formation assays were carried out at 16° C., 25° C. and 37° C.
For biofilm assays at 16° C. and 25° C., two-fold serial dilutions of the compounds in 100 μl liquid TSB 1/20 broth per well were prepared in the microtiter plate. Subsequently, an overnight culture of S. Typhimurium ATCC14028 or SL1344 (grown up in LB medium) was diluted 1:100 into TSB 1/20 broth and 100 μl (ca. 10^6 cells) was added to each well of the microtiter plates, resulting in a total amount of 200 μl medium per well. The pegged lid was placed on the microtiter plate and the plate was incubated for 48 hours at 16° C. or for 24 hours at 25° C. without shaking. During this incubation period biofilms were formed on the surface of the pegs. In case of the assay at 16° C., after 24 hours the lid was transferred into a new plate with medium and the specific molecules used for testing. […] For quantification of biofilm formation, the pegs were washed once in 200 μl phosphate buffered saline (PBS). The remaining attached bacteria were stained for 30 minutes with 200 μl 0.1% (w/v) crystal violet in an isopropanol/methanol/PBS solution (v/v 1:1:18). Excess stain was rinsed off by placing the pegs in a 96-well plate filled with 200 μl distilled water per well. After the pegs were air dried (30 min), the dye bound to the adherent cells was extracted with 30% glacial acetic acid (200 μl). The OD570 of each well was measured using the VERSAmax microtiter plate reader. The IC50 value for each compound was determined from concentration gradients in two or three independent experiments (with 2 or 3 repeats per experiment), by using the GraphPad software of Prism.
For biofilm assays at 37° C., two-fold serial dilutions of the compounds in 50 μl liquid CFA broth per well were prepared in the microtiter plate. Subsequently, an overnight culture of S. Typhimurium ATCC 14028 was diluted 1:100 into CFA broth and 100 μl (ca. 10^6 cells) was added to each well of the microtiter plates, resulting in a total amount of 150 μl medium per well. The pegged lid was placed on the microtiter plate and the plate was incubated for 24 hours at 37° C. without shaking. During incubation the plates were placed in a humidity controlled container to prevent evaporation of the growth medium. Quantification of biofilm formation was performed similarly as described above for the assays at 16° C. and 25° C.
as §1, with “imidazo[1,2-a]pyrimidinium bromide salts” for “2-amino-1H-imidazoles”

[1] = 25° C., 24 hours, Table 15, read-out: (1) IC50 (biofilm inhibition)
[2] = 25° C., Table 16, read-out: S. Typhimurium IC50 (biofilm formation)
[3] = Salmonella enterica, 25° C., 24 hours, Table 15, read-out: (1) IC50 (biofilm inhibition)
[4] = 25° C., Table 11, read-out: IC50 (biofilm formation)
[5] = 25° C., Table 14, read-out: IC50 biofilm inhibition
[6] = 25° C., Table 19, read-out: IC50 (biofilm formation)
[7] = S. Typhimurium ATCC 14028, 25° C., read-out: S. Typhimurium IC50 (biofilm formation)
[8] = S. Typhimurium ATCC 14028, 25° C., read-out: IC50 for biofilm inhibition (25° C.)
[9] = Salmonella enterica, 25° C., Table 11, read-out: IC50 (biofilm formation)
[10] = Salmonella enterica, 25° C., Table 14, read-out: IC50 biofilm inhibition
[11] = 25° C., strain not given, read-out: IC(50), preventive activity against S. typhimurium biofilms

## CCCCCCCCCCN1c2nccc[n+]2CC1(O)c1ccc(-c2ccc(-c3ccc([N+](=O)[O-])cc3)cc2)cc1 (racemic)
[1]
  IC50: 525 µM

## CN1c2nccc[n+]2CC1(O)c1ccc(Cl)cc1 (racemic) [Compound 15]
[2]
  IC50: 225 µM

## CN1c2nccc[n+]2CC1(O)c1ccc([N+](=O)[O-])cc1 (racemic) [Compound 28]
[2]
  IC50: 698 µM

## CCCCCCCCCCN1c2nccc[n+]2CC1(O)c1cccc2ccccc12 (stereo not drawn) [1-decyl-2-hydroxy-2-(1-naphthalenyl)-2,3-dihydro-1H-imidazo[1,2-a]pyrimidin-4-ium bromide]
[3]
  IC50: 68.9 µM

## CCCCCCCCCCN1c2nccc[n+]2CC1(O)c1cccc(Br)c1 (stereo not drawn) [1-decyl-2-hydroxy-2-(3-bromophenyl)-2,3-dihydro-1H-imidazo[1,2-a]pyrimidin-4-ium bromide]
[3]
  IC50: 33.8 µM

## CCCCCCCCCCN1c2nccc[n+]2CC1(O)c1ccc(S(C)(=O)=O)cc1 (stereo not drawn) [1-decyl-2-hydroxy-2-(4-methylsulfonylphenyl)-2,3-dihydro-1H-imidazo[1,2-a]pyrimidin-4-ium bromide]
[3]
  IC50: 21.9 µM

## CCCCCCCCCCN1c2nccc[n+]2CC1(O)c1ccc(SC)cc1 (stereo not drawn) [1-decyl-2-hydroxy-2-(4-methylthiophenyl)-2,3-dihydro-1H-imidazo[1,2-a]-pyrimidin-4-ium bromide]
[3]
  IC50: 45.7 µM

## CCCCCCCCCCN1c2nccc[n+]2CC1(O)c1ccc(-c2ccc([N+](=O)[O-])cc2)cc1 (stereo not drawn) [1-decyl-2-hydroxy-2-(4′-nitro[1,1′-biphenylyl]-4-yl)-2,3-dihydro-1H-imidazo[1,2-a]pyrimidin-4-ium bromide]
[1]
  IC50: 200 µM

## CCCCCCCC[n+]1c(-c2ccc(-c3ccc(-c4ccccc4)cc3)cc2)cn2cccnc21.[O-][Cl+3]([O-])([O-])[O-] [1-octyl-2-([1,1′:4′,1″-terphenyl]-4-yl)-imidazo[1,2-a]pyrimidin-1-ium perchlorate]
Salmonella enterica, 24 h, read-out: (1) IC50 (biofilm inhibition)
  IC50: 5.03 µM

## CN1c2nccc[n+]2CC1(O)c1ccc(F)cc1 (stereo not drawn) [Compound 37]
[2]
  IC50: > 800 µM

## CCCCN1c2nccc[n+]2CC1(O)c1ccc(F)cc1 (stereo not drawn) [Compound 38]
[4]
  IC50: 175 µM
[5]
  IC50: 175 µM
[2]
  IC50: 163 µM

## CCCCCCCCCCN1c2nccc[n+]2CC1(O)c1ccc(F)cc1 (stereo not drawn) [Compound 40]
[1]
  IC50: 20 µM
[2]
  IC50: 20 µM

## CCCCN1c2nccc[n+]2CC1(O)c1ccc(Br)cc1 (stereo not drawn) [Compound 41]
[4]
  IC50: 64.9 µM
[5]
  IC50: 64.9 µM
[2]
  IC50: 90.1 µM

## CC(C)CN1c2nccc[n+]2CC1(O)c1ccc(Br)cc1 (stereo not drawn) [Compound 42]
[2]
  IC50: 5.2 µM

## CCCCCN1c2nccc[n+]2CC1(O)c1ccc(Br)cc1 (stereo not drawn) [Compound 43]
[2]
  IC50: 1.7 µM

## CN1c2nccc[n+]2CC1(O)c1cccc([N+](=O)[O-])c1 (stereo not drawn) [Compound 44]
[2]
  IC50: 564 µM

## CCCCN1c2nccc[n+]2CC1(O)c1ccc(OC)cc1 (stereo not drawn) [Compound 45]
[2]
  IC50: 314 µM

## CCCCCCCCCCN1c2nccc[n+]2CC1(O)c1ccc(OC)cc1 (stereo not drawn) [Compound 47]
[1]
  IC50: 18.6 µM
[2]
  IC50: 18.6 µM

## CC(C)CN1c2nccc[n+]2CC1(O)c1ccc(Cl)c(Cl)c1 (stereo not drawn) [Compound 48]
[2]
  IC50: 8 µM

## CCCCCCCCCCN1c2nccc[n+]2CC1(O)c1ccc(Cl)c(Cl)c1 (stereo not drawn) [Compound 50]
[1]
  IC50: 32.4 µM
[2]
  IC50: 32.4 µM

## O=[N+]([O-])c1ccc(C2(O)C[n+]3cccnc3N2C2CC2)cc1 (stereo not drawn) [Compound 68]
25° C., Table 18, read-out: S. Typhimurium IC50 (biofilm formation)
  IC50: 125 µM

## O=[N+]([O-])c1ccc(C2(O)C[n+]3cccnc3N2Cc2ccccc2)cc1 (stereo not drawn) [Compound 72]
[4]
  IC50: 222 µM
[5]
  IC50: 222 µM
[6]
  IC50: 174 µM

## COc1ccc(CN2c3nccc[n+]3CC2(O)c2ccc(Br)cc2)cc1 (stereo not drawn) [Compound 74]
[4]
  IC50: 105 µM
[5]
  IC50: 105 µM
[6]
  IC50: 110 µM

## COc1cccc(CCN2c3nccc[n+]3CC2(O)c2ccc([N+](=O)[O-])cc2)c1 (stereo not drawn) [Compound 75]
[4]
  IC50: 124 µM
[5]
  IC50: 124 µM
[6]
  IC50: 124 µM

## COc1cccc(CCN2c3nccc[n+]3CC2(O)c2ccc(F)cc2)c1 (stereo not drawn) [Compound 76]
[6]
  IC50: 105 µM

## CCCCCCCCCNc1nc(-c2ccc(Cl)cc2)c[nH]1 [Compound 89]
[7]
  IC50: > 800 µM

## CNc1ncc(-c2ccc(F)c(F)c2)[nH]1 [Compound 112]
[7]
  IC50: 602 µM

## CNc1ncc(-c2ccc(O)cc2)[nH]1 [Compound 113]
[7]
  IC50: 160 µM

## CCCCNc1nc(-c2ccccc2)c[nH]1 [R1=H, R2=Butyl, R3=H, R4=Ph]
[8]
  IC50: 25 µM

## CCCCNc1nc(-c2ccc(Br)cc2)c[nH]1 [R1=H, R2=Butyl, R3=H, R4=p-Br—Ph]
[8]
  IC50: 7 µM

## CCCCNc1nc(-c2ccc(OC)cc2)c[nH]1 [R1=H, R2=Butyl, R3=H, R4=p-MeO—Ph]
[8]
  IC50: 49 µM

## O=[N+]([O-])c1ccc(-c2c[nH]c(NC3CCCCC3)n2)cc1 [R1=H, R2=Cyclohexyl, R3=H, R4=p-NO2—Ph]
[8]
  IC50: 44 µM

## CNc1nc(-c2ccc(F)cc2)c[nH]1 [R1=H, R2=Methyl, R3=H, R4=p-F—Ph]
[8]
  IC50: 102 µM

## c1ccc(-c2ccc(-c3c[nH]c(NC4CCCC4)n3)cc2)cc1 [R1=H, R2=cyclopentyl, R3=H, R4=Bi—Ph]
[8]
  IC50: 46 µM

## c1ccc(-c2c[nH]c(NC3CCCC3)n2)cc1 [R1=H, R2=cyclopentyl, R3=H, R4=Ph]
[8]
  IC50: 53 µM

## O=[N+]([O-])c1ccc(-c2c[nH]c(NC3CCCC3)n2)cc1 [R1=H, R2=cyclopentyl, R3=H, R4=p-NO2—Ph]
[8]
  IC50: 12 µM

## Cc1ccc(-c2c[nH]c(NC(C)C)n2)cc1 [R1=H, R2=i-Propyl, R3=H, R4=p-Me—Ph]
[8]
  IC50: 99 µM

## CCCCCCN1c2nccc[n+]2C(C)C1(O)c1ccccc1 (stereo not drawn) [R1=Hexyl, R3=Ph, R4=Me, 1-hexyl-2-hydroxy-2-phenyl-3-methyl-2,3-dihydro-1H-imidazo[1,2-a]pyrimidin-4-ium bromide]
[9]
  IC50: 218 µM
[10]
  IC50: 218 µM

## Cc1ccc(C2(O)C[n+]3cccnc3N2C(C)C)cc1 (stereo not drawn) [R1=Isopropyl, R3=4-Me—Ph, R4=H, 1-isopropyl-2-hydroxy-2-(4-methylphenyl)-2,3-dihydro-1H-imidazo[1,2-a]pyrimidin-4-ium bromide]
[9]
  IC50: 217 µM
[10]
  IC50: 217 µM

## N#Cc1ccc(C2(O)C[n+]3cccnc3N2C2CCCCC2)cc1 (stereo not drawn) [R1=cyclohexyl, R3=4-CN—Ph, R4=H, 1-cyclohexyl-2-hydroxy-2-(4-cyanophenyl)-2,3-dihydro-1H-imidazo[1,2-a]pyrimidin-4-ium bromide]
[9]
  IC50: 354 µM
[10]
  IC50: 354 µM

## COc1ccc(CN2c3nccc[n+]3CC2(O)c2ccc([N+](=O)[O-])cc2)cc1 (stereo not drawn) [R1=p-MeOBn, R3=4-NO2-Ph, R4=H, 1-(4-methoxybenzyl)-2-hydroxy-2-(4-nitrophenyl)-2,3-dihydro-1H-imidazo[1,2-a]pyrimidin-4-ium bromide]
[9]
  IC50: 220 µM
[10]
  IC50: 220 µM

## Clc1ccc(-c2cnc(NCCn3cc(C4CCCCC4)nn3)[nH]2)cc1Cl [R3=3,4-diClPh; R4=H; R9=c-hexyl; n=2]
[11]
  IC50: 55.2 µM

## Clc1ccc(-c2cnc(NCCCn3cc(C4CCCCC4)nn3)[nH]2)cc1Cl [R3=3,4-diClPh; R4=H; R9=c-hexyl; n=3]
[11]
  IC50: 26.8 µM
